Source: patent publication US12729377B2, “RNAi agents and compositions for inhibiting expression of angiopoietin-like 3 (ANGPTL3), and methods of use” (Arrowhead Pharmaceuticals, Inc., priority 2017, dated 2026)
In the oligonucleotide strings, read from the 5' end, every base follows the letter of its sugar. An asterisk marks phosphorothioate; unmarked linkages are phosphodiester. Other units and linkages are bracketed, terminal groups are in braces. A string of capitals states the bases alone. {NAG37} = tridentate N-acetyl-galactosamine targeting ligand, structure (NAG37)s; [invAb] = inverted abasic unit; m = 2'-O-methyl; f = 2'-fluoro

Key:
Assay type in all cases: in vivo, cynomolgus macaque (Macaca fascicularis)
ANGPTL3 gene [1] = assay: Example 9: serum LDL in cynomolgus monkeys; details: 2.0 mg/kg single SC injection day 1, cynos, n=3
Procedure: (§1) Additional ANGPTL3 RNAi agents were evaluated in cynomolgus monkeys. On day 1, cynomolgus macaque (Macaca fascicularis) primates (also referred to herein as “cynos”) were administered a single subcutaneous injection of 0.3 mL/kg (approximately 2-3 mL volume, depending on animal mass) containing 2.0 mg/kg of an ANGPTL3 RNAi agent, which included either AD05488, AD05743, AD05775, or AD05841, each formulated in saline. […] ANGPTL3 RNAi agents AD05488, AD05743, and AD05775 included nucleotide sequences designed to target position 304 of the ANGPTL3 gene. ANGPTL3 RNAi agent AD05841 included nucleotide sequences designed to target position 1035 of the ANGPTL3 gene.
(§2) Three (3) cynos in each group were tested (n=3). Blood samples were drawn and serum samples were analyzed on days −14 (predose), −7 (predose), 1 (pre-dose), 8, 15, 22, 29, and 35. Cynos were fasted overnight prior to each collection. ANGPTL3 protein levels in serum were measured by ELISA assay (R&D Systems), according to the manufacturer's recommendations. Triglycerides, total cholesterol, high-density lipoprotein (HDL), and low-density lipoprotein (LDL) in serum were measured on a Cobas® Integra 400 (Roche Diagnostics), according to the manufacturer's recommendations.
(§3) The ANGPTL3 protein levels, triglyceride levels, total cholesterol levels, HDL levels, and LDL levels for each animal were normalized. For normalization, the level of ANGPTL3 protein, triglyceride, HDL, and total cholesterol, respectively, for each animal at a time point, was divided by the average pre-treatment level of expression in that animal (in this case at days −14, −7, and 1) to determine the ratio of expression “normalized to pre-treatment.”

ANGPTL3 protein [2] = assay: Example 9: serum ANGPTL3 protein by ELISA in cynomolgus monkeys; details: for Average ANGPTL3 Protein Normalized to Pre-Treatment: 2.0 mg/kg single SC injection day 1, cynos, n=3
Procedure: as §1, §2, §3

ANGPTL3 gene [3] = assay: Example 9: serum HDL in cynomolgus monkeys; details: 2.0 mg/kg single SC injection day 1, cynos, n=3
Procedure: as §1, §2, §3

ANGPTL3 gene [4] = assay: Example 9: serum total cholesterol in cynomolgus monkeys; details: 2.0 mg/kg single SC injection day 1, cynos, n=3
Procedure: as §1, §2, §3

ANGPTL3 gene [5] = assay: Example 9: serum triglycerides in cynomolgus monkeys; details: 2.0 mg/kg single SC injection day 1, cynos, n=3
Procedure: as §1, §2, §3

ANGPTL3 gene [6] = assay: Example 8: serum HDL in cynomolgus monkeys; details: 3.0 mg/kg single SC injection day 1, cynos, n=2
Procedure: (§4) Additional ANGPTL3 RNAi agents were evaluated in cynomolgus monkeys. On day 1, cynomolgus macaque (Macaca fascicularis) primates (also referred to herein as “cynos”) were administered a single subcutaneous injection of 0.3 mL/kg (approximately 1-2 mL volume, depending on animal mass) containing 3.0 mg/kg of one of ANGPTL3 RNAi agent AD05577, AD05307, AD05488, AD05654, or AD05659, each formulated in saline.
as §2, with “Two (2)” for “Three (3)”, “(n=2).” for “(n=3).”, “−8 (pre-dose),” for “−14 (predose), −7 (predose),”, “36.” for “35.”
(§5) The ANGPTL3 protein levels, triglyceride levels, total cholesterol levels, HDL levels, and LDL levels for each animal were normalized. For normalization, the level of ANGPTL3 protein, triglyceride, HDL, and total cholesterol, respectively, for each animal at a time point, was divided by the average pre-treatment level of expression in that animal (in this case at days −8, and 1 (pre-dose)) to determine the ratio of expression “normalized to pre-treatment.”

ANGPTL3 protein [7] = assay: Example 8: serum ANGPTL3 protein by ELISA in cynomolgus monkeys; details: for Avg ANGPTL3 protein normalized to pre-treatment: 3.0 mg/kg single SC injection day 1, cynos, n=2
Procedure: as §4
as §2, with “Two (2)” for “Three (3)”, “(n=2).” for “(n=3).”, “−8 (pre-dose),” for “−14 (predose), −7 (predose),”, “36.” for “35.”
as §5

ANGPTL3 gene [8] = assay: Example 8: serum LDL in cynomolgus monkeys; details: 3.0 mg/kg single SC injection day 1, cynos, n=2
Procedure: as §4
as §2, with “Two (2)” for “Three (3)”, “(n=2).” for “(n=3).”, “−8 (pre-dose),” for “−14 (predose), −7 (predose),”, “36.” for “35.”
as §5

ANGPTL3 gene [9] = assay: Example 8: serum triglycerides in cynomolgus monkeys; details: 3.0 mg/kg single SC injection day 1, cynos, n=2
Procedure: as §4
as §2, with “Two (2)” for “Three (3)”, “(n=2).” for “(n=3).”, “−8 (pre-dose),” for “−14 (predose), −7 (predose),”, “36.” for “35.”
as §5

ANGPTL3 gene [10] = assay: Example 8: serum total cholesterol in cynomolgus monkeys; details: 3.0 mg/kg single SC injection day 1, cynos, n=2
Procedure: as §4
as §2, with “Two (2)” for “Three (3)”, “(n=2).” for “(n=3).”, “−8 (pre-dose),” for “−14 (predose), −7 (predose),”, “36.” for “35.”
as §5

## AD05743: RNAi agent duplex: antisense AM07235-AS, sense AM07579-SS (antisense mU*fA*mC*fUmGfAmUfCmAfAmAfUmAfUmGfUmUfGmAfG*mC; sense {NAG37}*[invAb]*mGmCfUmCfAmAfCmAfUfAfUmUmUmGmAmUmCmAmGmUmA*[invAb])
ANGPTL3 gene [1]; Day 8
  Average LDL Normalized to Pre-Treatment: 1.055
ANGPTL3 gene [1]; Day 15
  Average LDL Normalized to Pre-Treatment: 0.825
ANGPTL3 gene [1]; Day 22
  Average LDL Normalized to Pre-Treatment: 0.986
ANGPTL3 gene [1]; Day 29
  Average LDL Normalized to Pre-Treatment: 0.941
ANGPTL3 gene [1]; Day 35
  Average LDL Normalized to Pre-Treatment: 0.911
ANGPTL3 protein [2]; Day 8
  Average ANGPTL3 Protein Normalized to Pre-Treatment: 0.349
ANGPTL3 protein [2]; Day 15
  Average ANGPTL3 Protein Normalized to Pre-Treatment: 0.316
ANGPTL3 protein [2]; Day 22
  Average ANGPTL3 Protein Normalized to Pre-Treatment: 0.322
ANGPTL3 protein [2]; Day 29
  Average ANGPTL3 Protein Normalized to Pre-Treatment: 0.381
ANGPTL3 protein [2]; Day 35
  Average ANGPTL3 Protein Normalized to Pre-Treatment: 0.346
ANGPTL3 protein [2]; each of the measured time points, single 2.0 mg/kg subcutaneous, cynomolgus monkeys
  reduction in ANGPTL3 protein compared to pre-treatment: reduction
ANGPTL3 gene [3]; Day 8
  Average HDL Normalized to Pre-Treatment: 0.849
ANGPTL3 gene [3]; Day 15
  Average HDL Normalized to Pre-Treatment: 0.797
ANGPTL3 gene [3]; Day 22
  Average HDL Normalized to Pre-Treatment: 0.666
ANGPTL3 gene [3]; Day 29
  Average HDL Normalized to Pre-Treatment: 0.757
ANGPTL3 gene [3]; Day 35
  Average HDL Normalized to Pre-Treatment: 0.677
ANGPTL3 gene [4]; Day 8
  Average Total Cholesterol Normalized to Pre-Treatment: 0.925
ANGPTL3 gene [4]; Day 15
  Average Total Cholesterol Normalized to Pre-Treatment: 0.758
ANGPTL3 gene [4]; Day 22
  Average Total Cholesterol Normalized to Pre-Treatment: 0.768
ANGPTL3 gene [4]; Day 29
  Average Total Cholesterol Normalized to Pre-Treatment: 0.807
ANGPTL3 gene [4]; Day 35
  Average Total Cholesterol Normalized to Pre-Treatment: 0.752
ANGPTL3 gene [5]; Day 8
  Average Triglycerides Normalized to Pre-Treatment: 0.646
ANGPTL3 gene [5]; Day 15
  Average Triglycerides Normalized to Pre-Treatment: 0.708
ANGPTL3 gene [5]; Day 22
  Average Triglycerides Normalized to Pre-Treatment: 0.458
ANGPTL3 gene [5]; Day 29
  Average Triglycerides Normalized to Pre-Treatment: 0.479
ANGPTL3 gene [5]; Day 35
  Average Triglycerides Normalized to Pre-Treatment: 0.521

## AD05577: RNAi agent duplex: antisense AM07350-AS, sense AM07002-SS (antisense mU*fG*mU*mUmGmAmAmUmUmAmAfUmGfUmCfCmAfUmGfG*mA; sense {NAG37}*[invAb]*mUmCmCmAmUmGmGmAfCfAfUmUmAmAmUmUmCmAmAmCmA*[invAb])
ANGPTL3 gene [6]; Day 8
  Average HDL Normalized to Pre-Treatment: 0.855
ANGPTL3 gene [6]; Day 15
  Average HDL Normalized to Pre-Treatment: 0.788
ANGPTL3 gene [6]; Day 22
  Average HDL Normalized to Pre-Treatment: 0.818
ANGPTL3 gene [6]; Day 29
  Average HDL Normalized to Pre-Treatment: 0.857
ANGPTL3 gene [6]; Day 36
  Average HDL Normalized to Pre-Treatment: 0.852
ANGPTL3 protein [7]; Day 8
  Avg ANGPTL3 protein normalized to pre-treatment: 0.503
ANGPTL3 protein [7]; Day 15
  Avg ANGPTL3 protein normalized to pre-treatment: 0.544
ANGPTL3 protein [7]; Day 22
  Avg ANGPTL3 protein normalized to pre-treatment: 0.754
ANGPTL3 protein [7]; Day 29
  Avg ANGPTL3 protein normalized to pre-treatment: 0.586
ANGPTL3 protein [7]; Day 36
  Avg ANGPTL3 protein normalized to pre-treatment: 0.479
ANGPTL3 protein [7]; all measured time points, single 3.0 mg/kg subcutaneous, cynomolgus monkeys
  reduction in ANGPTL3 protein compared to pre-treatment: reduction
ANGPTL3 gene [8]; Day 8
  Average LDL Normalized to Pre-Treatment: 0.951
ANGPTL3 gene [8]; Day 15
  Average LDL Normalized to Pre-Treatment: 1.091
ANGPTL3 gene [8]; Day 22
  Average LDL Normalized to Pre-Treatment: 0.860
ANGPTL3 gene [8]; Day 29
  Average LDL Normalized to Pre-Treatment: 0.991
ANGPTL3 gene [8]; Day 36
  Average LDL Normalized to Pre-Treatment: 0.925
ANGPTL3 gene [9]; Day 8
  Avg TG normalized to pre-treatment: 1.159
ANGPTL3 gene [9]; Day 15
  Avg TG normalized to pre-treatment: 0.977
ANGPTL3 gene [9]; Day 22
  Avg TG normalized to pre-treatment: 0.855
ANGPTL3 gene [9]; Day 29
  Avg TG normalized to pre-treatment: 0.886
ANGPTL3 gene [9]; Day 36
  Avg TG normalized to pre-treatment: 0.748
ANGPTL3 gene [10]; Day 8
  Avg Total Chol normalized to pre-treatment: 0.885
ANGPTL3 gene [10]; Day 15
  Avg Total Chol normalized to pre-treatment: 0.931
ANGPTL3 gene [10]; Day 22
  Avg Total Chol normalized to pre-treatment: 0.844
ANGPTL3 gene [10]; Day 29
  Avg Total Chol normalized to pre-treatment: 0.839
ANGPTL3 gene [10]; Day 36
  Avg Total Chol normalized to pre-treatment: 0.936
